Results reported in US20240391931A1 (Bristol-Myers Squibb Company, priority 2021, published 2024).

Tests used:
Ba/F3 HER2YVMA cells = assay: Cellular proliferation in Ba/F3 HER2YVMA cells; type: cell-based, murine; conditions: Mus musculus, BaF3, read-out: Ba/F3 YVMA GI50
Experimental: (§1) Engineered lines expressing HER2YVMA and HER2 WT were prepared in HEK293 (human embryonic kidney cells), Ba/F3 (Interleukin 3 (IL3)-dependent murine pro B cell line), and BEAS2B (primary immortalized human bronchial epithelial cell line). Ba/F3, BEAS2B, and HEK293 cells were obtained from the American Type Culture Collection (ATCC, Manassas, VA). Parental Ba/F3 cells were grown in suspension in complete RPMI 1640 supplemented with 10% FBS and 1% P/S and 10 ng/ml interleukin 3 (IL3, Sigma-Aldrich). Hek293 and BEAS2B cells were grown as monolayers in DMEM supplemented with 10% FBS and 1% P/S. All cells were maintained and propagated in a humidified 5% CO2 incubator at 37° C.
(§2) To generate Ba/F3, BEAS2B, and Hek-293 cells engineered with lentivirus to express HER2 WT or HER2YVMA, the cells were transduced with lentiviruses at multiplicity of infection (MOI) of 1 or 10; transduced cells were selected and maintained with G418 ([…]) (Geneticin, Life Technologies, Carlsbad, CA). Ba/F3 engineered cells were subjected to gradual withdrawal of interleukin 3 (IL-3, Sigma-Aldrich). After selection, IL3 independent Ba/F3 HER2YVMA, and BEAS2B HER2YVMA cells were cloned by limiting dilution. Hek293 HER2YVMA cells were used as pool. HER2 and phospho HER2 levels were confirmed by flow cytometery and immunoassay (MSD, Meso-Scale Discovery, Rockville, Maryland).
(§3) Cell proliferation in non-adherent cells was investigated in Ba/F3 parental (IL3-dependent) and in the two IL3 independent cell clones tranduced to express mutant HER2 protein containing the YVMA insertion (Ba/F3 HER2YVMA). Cells were plated in DMEM supplemented with 10% FBS, 1% P/S, and 10 ng/ml IL3 (for parental Ba/F3 only) in 96-well white clear-bottom tissue culture plates (Costar, Sigma-Aldrich) at a starting cell density of 7500 cells. An 8-point standard curve with varying cell densities (starting at 100,000 cells and serially diluting down 2-fold) was prepared for each cell line and read after plating. Compound solutions were prepared in serum free media, and cells were treated as described above for adherent cells. Cell viability was determined by CellTiter Glo (Promega, Madison, WI) after 72 h. The results were converted to cell numbers using a standard curve; growth inhibition (GI50 values) were determined by Graph Pad Prism.
(§4) The results of these experiments show the ability of compounds to inhibit cell growth in HER2 dependent cell lines and a control cell line (Ba/F3 parental) are depicted in Table 4 in the columns titled “G150 (nM)”. Ba/F3 parental results fall under the heading “Ba/F3 parental-G150”, and Ba/F3 HER2YVMA fall under the heading “Ba/F3 YVMA-G150”.

Ba/F3 parental cells = assay: Cellular proliferation in Ba/F3 parental (IL3-dependent) cells; type: cell-based, murine; conditions: Mus musculus, BaF3
Experimental: as §1, §3, §4

HER2YVMA = HER2YVMA (Homo sapiens, UniProt P04626, INS775YVMA); assay: HER2 signaling (pHER2) in Ba/F3-HER2YVMA cells; type: cell-based; parameters: expressed in transfected cells; host or cells: HEK293 (pool), Ba/F3 (clones), BEAS2B (clones); lentiviral vector pCDH-CMV-MCS-EF1-Neo; conditions: read-out: Ba/F3 YVMA pHER2 EC50
Experimental: Cell culture, plasmid cloning, and lentiviral transduction were carried out according to standard procedures. The Human HER2 cDNA construct in pCMV6-Entry for the HER2 wildtype (WT) expression was obtained from Origene. The HER2 cDNA including the 12-nucleotide insertion corresponding to YVMA insertion (HER2YVMA) was codon optimized, synthesized and cloned by GenScript (Piscataway, NJ) in pcDNA3.1. The lentiviral constructs expressing HER2YVMA and HER2 WT were sub-cloned using PCR at System Biosciences (SBI, Mountainview, CA) into lentiviral vectors pCDH-CMV-MCS-EF1-Neo and lentiviral particles were generated.
as §1, §2
Compound treatment of Ba/F3-HER2YVMA suspension cells was done as described with minor modifications. Cells were plated at 300000 cell/well in 96-well round bottom plates in RPMI supplemented with 2% FBS and immediately dosed with compounds serially diluted in media without serum for a final concentration of 1% FBS, 0.1% DMSO. Cells were incubate with compounds for 1.5 hr, and plates were spun at 1500 rpm for 5 mins to remove media without disturbing pellet. Cells were lysed as described above.
HER2 signaling was evaluated using phospho (Tyr1248)/total ErbB2 whole cell lysate MSD plates (Meso-Scale Discovery, Gaithersburg, MD). The phospho HER2 signal was normalized to total HER2 for each sample; results are reported as % DMSO control. The normalized data was fitted using a sigmoidal curve analysis program (Graph Pad Prism version 6) with variable Hill slope to determine EC50 values.
The HER2 signaling results are provided in Table 4, under columns titled “BT474-pHER2 EC50”, “N87-pHER2 EC50”, and “NCI-H1781-pHER2 EC50”. Hek293-HER2YVMA ins fall under the heading “HEKYVMA-pHER2 EC50”, Ba/F3 HER2YVMA fall under the heading “Ba/F3 YVMA-pHER2 EC50” and BEAS2B-HER2YVMA fall under the heading “BEAS2B YVMA-pHER2 EC50”.

Sequence of HER2YVMA (P04626 with tags, fused parts or gaps INS775YVMA): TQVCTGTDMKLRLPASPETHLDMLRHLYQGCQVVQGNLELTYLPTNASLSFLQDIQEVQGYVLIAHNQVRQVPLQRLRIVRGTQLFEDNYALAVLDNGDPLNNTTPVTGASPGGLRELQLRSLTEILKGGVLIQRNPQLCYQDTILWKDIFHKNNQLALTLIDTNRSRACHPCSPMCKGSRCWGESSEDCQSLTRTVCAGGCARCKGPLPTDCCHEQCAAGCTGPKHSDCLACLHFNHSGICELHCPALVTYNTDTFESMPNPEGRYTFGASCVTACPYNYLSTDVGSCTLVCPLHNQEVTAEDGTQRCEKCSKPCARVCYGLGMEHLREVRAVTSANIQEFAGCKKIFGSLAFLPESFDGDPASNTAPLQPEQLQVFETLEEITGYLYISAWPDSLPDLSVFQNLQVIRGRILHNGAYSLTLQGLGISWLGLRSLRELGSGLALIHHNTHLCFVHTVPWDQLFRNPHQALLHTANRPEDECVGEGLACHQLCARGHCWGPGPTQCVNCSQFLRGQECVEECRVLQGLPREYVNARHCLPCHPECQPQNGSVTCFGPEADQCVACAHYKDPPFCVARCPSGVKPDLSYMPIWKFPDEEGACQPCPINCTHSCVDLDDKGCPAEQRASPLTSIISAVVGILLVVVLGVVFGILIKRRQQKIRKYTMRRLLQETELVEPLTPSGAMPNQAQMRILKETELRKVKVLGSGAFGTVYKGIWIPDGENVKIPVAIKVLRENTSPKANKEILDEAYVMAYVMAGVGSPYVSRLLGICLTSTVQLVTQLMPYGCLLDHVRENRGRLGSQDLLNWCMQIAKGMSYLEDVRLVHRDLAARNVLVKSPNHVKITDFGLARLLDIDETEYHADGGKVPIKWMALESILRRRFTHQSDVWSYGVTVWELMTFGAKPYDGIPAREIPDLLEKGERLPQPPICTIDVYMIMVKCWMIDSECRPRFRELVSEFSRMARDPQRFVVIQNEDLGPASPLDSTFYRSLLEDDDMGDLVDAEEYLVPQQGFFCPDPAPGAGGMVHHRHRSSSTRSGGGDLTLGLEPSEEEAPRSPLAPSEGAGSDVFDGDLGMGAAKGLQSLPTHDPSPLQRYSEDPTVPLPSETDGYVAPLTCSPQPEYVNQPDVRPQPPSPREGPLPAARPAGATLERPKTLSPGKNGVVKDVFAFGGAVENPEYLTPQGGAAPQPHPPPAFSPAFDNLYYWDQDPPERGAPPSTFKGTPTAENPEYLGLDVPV

Structure (SMILES) | GI50 (Ba/F3 HER2YVMA cells) [nM] | EC50 (HER2YVMA) [nM] | GI50 (Ba/F3 parental cells) [nM]
CN(C)C/C=C/C(=O)N1CCc2c(sc3ncnc(Nc4ccc(Oc5ccc6ncnn6c5)c(Cl)c4)c23)C1 [Compound 5, (E)-1-(4-((4-([1,2,4]triazolo[1,5-a]pyridin-6-yloxy)-3-chlorophenyl)amino)-5,8-dihydropyrido[4′,3′:4,5]thieno[2,3-d]pyrimidin-7(6H)-yl)-4-(dimethylamino)but-2-en-1-one] |  | < 100 | 
Cc1ccc(Oc2ccc(Nc3ncnc4sc5c(c34)CCN(C(=O)/C=C/CN(C)C(C)(C)C)C5)cc2C)cn1 [Compound 33] | < 100 | < 100 | 1000 to 10000
Cc1ccc(Oc2ccc(Nc3ncnc4sc5c(c34)CCN(C(=O)/C=C/CN3CC4C(CO)C4C3)C5)cc2C)cn1 (stereo not shown) [Compound 34] | < 100 | < 100 | 1000 to 10000
COc1ccc(Oc2ccc(Nc3ncnc4sc5c(c34)CCN(C(=O)/C=C/CN(C)C)C5)cc2C)cn1 [Compound 95, (E)-4-(Dimethylamino)-1-(4-((4-((6-methoxypyridin-3-yl)oxy)-3-methylphenyl)amino)-5,6-dihydropyrido[4′,3′:4,5]thieno[2,3-d]pyrimidin-7(8H)-yl)but-2-en-1-one] | < 100 |  | 1000 to 10000

Further lines, with some results ahead:

GI50 (Ba/F3 HER2YVMA cells) [nM] | EC50 (HER2YVMA) [nM] | Structure (SMILES) | GI50 (Ba/F3 parental cells) [nM]
< 100 |  | Cc1ccc(Oc2ccc(Nc3ncnc4sc5c(c34)C(C)CN(C(=O)C=CCN(C)C)C5)cc2C)cn1 (single isomer, unassigned) [Compound 106] | 1000 to 10000
< 100 |  | Cc1ccc(Oc2ccc(Nc3ncnc4sc5c(c34)CN(C(=O)/C=C/CN(C)C)C5)cc2C)cn1 [Compound 99, (E)-4-(dimethylamino)-1-(4-((3-methyl-4-((6-methylpyridin-3-yl)oxy)phenyl)amino)-5,7-dihydro-6H-pyrrolo[3′,4′:4,5]thieno[2,3-d]pyrimidin-6-yl)but-2-en-1-one] | 1000 to 10000
